Reference: US11465965B2, “Double-headed protease inhibitor” (UBE INDUSTRIES, LTD., priority 2017, dated 2022)
Counter-ions that a name gives are not always drawn.

What was measured:
DIO mouse = assay: Anti-obesity effect test using DIO mouse; assay type: in vivo; details: 336 h, DIO mice, vs vehicle group, read-out: Weight loss rate; for inhibition in vivo at 50 mg/kg: oral 50 mg/kg once daily for 2 weeks
Procedure: (Test Example 4): Anti-Obesity Effect Test Using DIO Mouse
Diet-induced obesity (DIO) mice (D-12492 diet, male, C57BL-DIO, 26 to 28-week old) were orally administered with a 0.5 W/V % methylcellulose suspension comprising each test compound (Compound administration group, 5 or 6 mice/group) or a 0.5 W/V % methylcellulose suspension (Compound non-administration group (Vehicle group), 6 mice/group) once daily for 2 weeks. Weight loss rate was calculated by the following equation. Weight loss rate (%) of each Compound administration group−(1−average weight at the last day of the test of each Compound administration group/average weight at the last day of the test of Vehicle group)×100

[1] = Rat pharmacokinetic (PK) test (plasma concentration after oral administration); details: male, SD
Procedure: Each test compound was suspended in a 0.5 W/V % methylcellulose 400 solution to prepare a suspension, and the resulting suspension was orally administered to a male SD rat of 7 to 8-week old (weight: 180 to 250 g). After 0.25, 0.5, 1, 2, 4, 8, and 24 hour(s) of the administration of each test compound, blood (EDTA-added blood) was collected from jugular vein under isoflurane inhalation anesthesia. […] To the resulting blood plasma was added acetonitrile, a mixed solvent of acetonitrile and water (1:1 (V/V)), or a mixed solvent of acetonitrile and 0.1 M hydrochloric acid (1:1 (V/V)), then the resulting mixture was mixed at 750 rpm for 3 minutes in a shaker, and subjected to centrifugal separation at 3700 rpm for 2 minutes in a centrifuge to remove proteins. The resulting sample was subjected to LC (liquid chromatography)/MS (mass spectrometry) measurement under the following measurement conditions.
Each compound concentration in blood plasma at each time of blood collection was calculated according to the internal standard method, and, area under the plasma concentration vs. time curve (AUCall (Area Under Curve)) was calculated according to the trapezoidal method.
The LC and MS systems used in the present test are as follows.
LC: LC20 or LC30 HPLC system manufactured by Shimadzu Corporation
Column: Phenomenex Kinetex C18 (50×2.1 mm, 2.6 μm)
Column temperature: 40° C.
Mobile phase A: aqueous solution with 0.1% formic acid, Mobile phase B: 50% acetonitrile/methanol solution with 0.1% formic acid

[2] = molecular target: T1, Human recombinant trypsin (Homo sapiens, UniProt P07477); assay: Human trypsin inhibition test; assay type: biochemical; details: 20 minutes after reaction start, read-out: Inhibition rate (trypsin); for inhibition at 0.01 µM: compound concentration 10 nM; for inhibition at 0.1 µM: compound concentration 100 nM; for inhibition at 0.001 µM: compound concentration 1 nM
T1 construct: purchased Wako Pure Chemical Industries, Ltd. 206-17171
Procedure: (Test Example 2): Human Trypsin Inhibition Test
Human recombinant trypsin (manufactured by Wako Pure Chemical Industries, Ltd., code no.: 206-17171) was diluted with an assay buffer (0.1 M Tris-HCl (pH8.0), 0.15 M NaCl, 10 mM CaCl2, 0.05% Brij35) to prepare a 10 ng/mL enzyme solution. Then, Boc-Phe-Ser-Arg-MCA (manufactured by PEPTIDE INSTITUTE, INC., code no.: 3107-v) was diluted with the assay buffer to prepare a 40 μM substrate solution. Each test compound was dissolved into DMSO, then diluted with the assay buffer 100 times, and further appropriately diluted with an assay buffer comprising 1% DMSO to prepare each compound solution. 10 μL of the compound solution, 15 μL of the assay buffer, and 50 μL of the substrate solution were added to a 96 well black plate (manufactured by Thermo Fisher Scientific Inc., code no.: 9502867), mixed, and then 25 μL of the enzyme solution was added thereto, and mixed to start the reaction. Fluorescence intensities at excitation wavelength 355 nm and fluorescence wavelength of 460 nm were measured by using a fluorescence plate reader (Flex station 3) (Test compound addition group). Also, the same reaction as described above except for not adding each test compound was carried out (Test compound non-addition group). Additionally, the same reaction as described above except for not adding each test compound and the enzyme was carried out (Control group). Inhibition rate was calculated by the following equation using fluorescence intensity after 20 minutes of reaction start. Inhibition rate (%)=(1−(fluorescence intensity of Test compound addition group−fluorescence intensity of Control group)[…](fluorescence intensity of Test compound non-addition group−fluorescence intensity of Control group))×100

[3] = molecular target: T2, Human recombinant enteropeptidase (Homo sapiens, UniProt P98073); assay: Human enteropeptidase inhibition test; assay type: biochemical; details: 20 minutes after reaction start, read-out: Inhibition rate (enteropeptidase); for inhibition at 0.01 µM: compound concentration 10 nM; for inhibition at 0.1 µM: compound concentration 100 nM; for inhibition at 0.001 µM: compound concentration 1 nM
T2 construct: purchased BIO Vision Inc. 7529-50
Procedure: (Test Example 1): Human Enteropeptidase Inhibition Test
Human recombinant enteropeptidase (manufactured by BIO Vision Inc., catalog no.: 7529-50) was diluted with an assay buffer (50 mM tricine (pH8.0), 0.01 W/V % Tween 20, 10 mM CaCl2) to prepare an […] enzyme solution. Then, 5FAM-Abu-Gly-Asp-Asp-Lys-Ile-Val-Gly-Gly-Lys (CPQ2)-Lys-Lys-NH2 (manufactured by CHINESE PEPTIDE COMPANY, purity: 94.5) was diluted with the assay buffer to prepare a 1.5 μM substrate solution. Each test compound was dissolved into DMSO, then diluted with the assay buffer 100 times, and further appropriately diluted with an assay buffer comprising 1% DMSO to prepare each compound solution. 10 μL of the compound solution, 15 μL of the assay buffer, and 50 μL of the substrate solution were added to a 96 well black plate (manufactured by Thermo Fisher Scientific Inc., code no.: 9502867), mixed, then 25 μL of the enzyme solution was added thereto, and mixed to start the reaction. Fluorescence intensities at excitation wavelength 485 nm and fluorescence wavelength 535 nm were measured by using a fluorescence plate reader (Flex station 3) (Test compound addition group). Also, the same reaction as described above except for not adding each test compound was carried out (Test compound non-addition group). Additionally, the same reaction as described above except for not adding each test compound and the enzyme was carried out (Control group). Inhibition rate was calculated by the following equation using fluorescence intensity after 20 minutes of reaction start. Inhibition rate (%)=(1−(fluorescence intensity of Test compound addition group−fluorescence intensity of Control group)÷(fluorescence intensity of Test compound non-addition group−fluorescence intensity of Control group))×100

T2 sequence (P98073 whole entry): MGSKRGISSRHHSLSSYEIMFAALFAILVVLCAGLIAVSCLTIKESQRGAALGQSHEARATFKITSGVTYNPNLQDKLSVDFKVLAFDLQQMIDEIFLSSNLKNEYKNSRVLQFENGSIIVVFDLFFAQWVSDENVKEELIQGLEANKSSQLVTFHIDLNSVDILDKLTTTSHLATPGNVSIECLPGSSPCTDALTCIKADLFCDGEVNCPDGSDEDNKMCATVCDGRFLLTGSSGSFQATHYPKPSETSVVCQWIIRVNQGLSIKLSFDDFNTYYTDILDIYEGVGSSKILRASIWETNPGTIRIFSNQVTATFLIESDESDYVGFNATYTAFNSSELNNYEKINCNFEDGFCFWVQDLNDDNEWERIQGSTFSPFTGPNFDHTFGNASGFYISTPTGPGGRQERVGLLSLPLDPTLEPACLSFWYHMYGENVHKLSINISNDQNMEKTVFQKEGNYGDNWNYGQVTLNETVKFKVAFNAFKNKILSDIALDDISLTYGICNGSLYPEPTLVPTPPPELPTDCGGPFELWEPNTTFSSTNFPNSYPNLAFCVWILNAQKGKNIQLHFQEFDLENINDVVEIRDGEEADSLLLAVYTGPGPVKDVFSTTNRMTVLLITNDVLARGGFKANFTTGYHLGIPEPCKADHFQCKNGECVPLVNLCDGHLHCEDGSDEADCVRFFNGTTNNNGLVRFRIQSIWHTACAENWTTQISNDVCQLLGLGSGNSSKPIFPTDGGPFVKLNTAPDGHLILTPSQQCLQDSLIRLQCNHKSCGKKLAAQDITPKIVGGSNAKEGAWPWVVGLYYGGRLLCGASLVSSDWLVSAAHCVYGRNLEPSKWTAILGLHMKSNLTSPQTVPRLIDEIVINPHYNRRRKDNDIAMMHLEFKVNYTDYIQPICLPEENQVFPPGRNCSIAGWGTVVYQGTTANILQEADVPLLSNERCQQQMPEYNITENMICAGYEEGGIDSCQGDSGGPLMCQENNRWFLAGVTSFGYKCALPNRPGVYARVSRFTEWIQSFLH

SMILES	inhibition at 0.01 µM [2] [%]	inhibition at 0.1 µM [2] [%]	inhibition at 0.01 µM [3] [%]	inhibition at 0.1 µM [3] [%]	other results
Cl.N=C(N)Nc1ccc(C(=O)Oc2ccc(CNS(=O)(=O)N(CCOCCOCCOCCN([C@@H](CC(=O)O)C(=O)O)S(=O)(=O)NCc3ccc(OC(=O)c4ccc(NC(=N)N)cc4)cc3)[C@@H](CC(=O)O)C(=O)O)cc2)cc1 [3-(c), 2S,16S)-3,15-bis(N-(4-(4-guanidinobenzoyl)oxy)benzyl)sulfamoyl)-6,9,12-trioxa-3,15-diazaheptadecane-1,2,16,17-tetracarboxylic acid hydrochloride]					inhibition in vivo at 100 mg/kg (DIO mouse; oral 100 mg/kg once daily for 2 weeks): ≥ 4%
Cl.N=C(N)Nc1ccc(C(=O)Oc2ccc(CNS(=O)(=O)N(CCOCCOCCOCCN([C@@H](CC(=O)O)C(=O)O)S(=O)(=O)NCc3ccc(OC(=O)c4ccc(NC(=N)N)cc4)cc3)[C@@H](CC(=O)O)C(=O)O)cc2)cc1 [3-(c)]					AUC ([1]; 10 mg/kg): ≤ 100 ng·h/mL
N=C(N)Nc1ccc(C(=O)Oc2ccc(COC(=O)N(CCCCCCCCCCCCN(C(=O)OCc3ccc(OC(=O)c4ccc(NC(=N)N)cc4)cc3)C(CC(=O)O)C(=O)O)C(CC(=O)O)C(=O)O)cc2)cc1 (centres unmarked) [11-(b), 2,2′-(1,20-bis(4-((4-guanidinobenzoyl)oxy)phenyl 3,18-dioxo-2,19-dioxa-4,17-diazaicosane-4,17-diyl)disuccinic acid trifluoroacetate]	≥ 50	≥ 50	≥ 50	≥ 50	AUC ([1]; 9 mg/kg): ≤ 100 ng·h/mL
N=C(N)Nc1ccc2c(c1)CCCOc1c(cccc1C(=O)N(CCOCCOCCN(C(=O)c1cccc3c1OCCCc1cc(NC(=N)N)ccc1C(=O)O3)[C@@H](CC(=O)O)C(=O)O)[C@@H](CC(=O)O)C(=O)O)OC2=O [20-(d), (2S,13S)-3,12-bis(10-guanidino-13-oxo-6,7,8,13-tetrahydrodibenzo[b,f][1,4]dioxecin-4-carbonyl)-6,9-dioxa-3,12-diazatetradecane-1,2,13,14-tetracarboxylic acid]					inhibition in vivo at 50 mg/kg (DIO mouse): ≥ 4%
CN(Cc1ccc(OC(=O)c2ccc(NC(=N)N)cc2)cc1)S(=O)(=O)N(CCOCCOCCN([C@@H](CC(=O)O)C(=O)O)S(=O)(=O)N(C)Cc1ccc(OC(=O)c2ccc(NC(=N)N)cc2)cc1)[C@@H](CC(=O)O)C(=O)O [22-(a), (2S,13S)-3,12-bis(N-(4-((4-guanidinobenzoyl)oxy)benzyl)-N-methylsulfamoyl)-6,9-dioxa-3,12-diazatetradecane-1,2,13,14-tetracarboxylic acid trifluoroacetate]	≥ 50	≥ 50	≥ 50		inhibition at 0.001 µM [2]: ≥ 50%; inhibition at 0.001 µM [3]: ≥ 50%
N=C(N)Nc1ccc(C(=O)Oc2ccc(CNS(=O)(=O)N(CCOCCOCCN(C(CC(=O)O)CC(=O)O)S(=O)(=O)NCc3ccc(OC(=O)c4ccc(NC(=N)N)cc4)cc3)C(CC(=O)O)CC(=O)O)cc2)cc1 [23-(c), 3,3′-(((ethane-1,2-diylbis(oxy))bis(ethane-2,1-diyl))bis((N-(4-((4-guanidinobenzoyl)oxy)benzyl)sulfamoyl)azanediyl))dipentanedioic acid]	≥ 50	≥ 50	≥ 50	≥ 50	inhibition at 0.001 µM [2]: ≥ 50%

Continued, in another order:

inhibition at 0.01 µM [2] [%]	inhibition at 0.1 µM [2] [%]	inhibition at 0.01 µM [3] [%]	inhibition at 0.1 µM [3] [%]	SMILES	other results
≥ 50	≥ 50	≥ 50	≥ 50	N=C(N)Nc1ccc(C(=O)Oc2ccc(CN(CCOCCOCCN(Cc3ccc(OC(=O)c4ccc(NC(=N)N)cc4)cc3)S(=O)(=O)N[C@@H](CC(=O)O)C(=O)O)S(=O)(=O)N[C@@H](CC(=O)O)C(=O)O)cc2)cc1 [24-(a)]	inhibition in vivo at 50 mg/kg (DIO mouse): ≥ 4%; inhibition at 0.001 µM [2]: ≥ 50%
≥ 50	≥ 50	≥ 50	≥ 50	N=C(N)Nc1ccc(C(=O)Oc2cccc(CNS(=O)(=O)N(CCOCCOCCN([C@@H](CC(=O)O)C(=O)O)S(=O)(=O)NCc3cccc(OC(=O)c4ccc(NC(=N)N)cc4)c3)[C@@H](CC(=O)O)C(=O)O)c2)cc1 [25-(b), (2S,13S)-3,12-bis(N-(3-((4-guanidinobenzoyl)oxy)benzyl)sulfamoyl)-6,9-dioxa-3,12-diazatetradecane-1,2,13,14-tetracarboxylic acid]	inhibition in vivo at 50 mg/kg (DIO mouse): ≥ 4%; inhibition at 0.001 µM [3]: ≥ 50%
	≥ 50		≥ 50	N=C(N)Nc1ccc(C(=O)Oc2ccc(COC(=O)N[C@@H](CC(=O)O)C(=O)O)cc2)cc1 [Reference Example 31-(b), (5)-2-((((4-((4-guanidinobenzoyl)oxy)benzyl)oxy)carbonyl)amino)succinic acid trifluoroacetate]	
	≥ 50		≥ 50	N=C(N)Nc1ccc(C(=O)Oc2ccc(COC(=O)NC(CC(=O)O)C(=O)N[C@@H](CC(=O)O)C(=O)O)cc2)cc1 (stereo partly drawn) [Reference Example 41-(b), (2S)-2-(3-carboxy-2-((((4-((4-guanidinobenzoyl)oxy)benzyl)oxy)carbonyl)amino)propaneamine)succinic acid trifluoroacetate]	
	≥ 50		≥ 50	N=C(N)Nc1ccc(C(=O)Oc2ccc(COC(=O)N(Cc3cccc(C(=O)O)c3)[C@@H](CC(=O)O)C(=O)O)cc2)cc1 [Reference Example 49-(b), (S)-2-(3-carboxybenzyl) (((4-((4-guanidinobenzoyl)oxy)benzyl)oxy)carbonyl)amino)succinic acid trifluoroacetate]	
	≥ 50		≥ 50	N=C(N)Nc1ccc(C(=O)Oc2ccc(CNS(=O)(=O)N(Cc3cccc(C(=O)O)c3)[C@@H](CC(=O)O)C(=O)O)cc2)cc1 [Reference Example 52-(b), (S)-2-((3-carboxybenzyl)(N-(4-((4-guanidinobenzoyl)oxy)benzyl)sulfamoyl)amino)succinic acid trifluoroacetate]	
	≥ 50		≥ 50	N=C(N)Nc1ccc(C(=O)Oc2ccc(CNS(=O)(=O)N[C@@H](CC(=O)O)C(=O)O)cc2)cc1 [Reference Example 55-(b), (S)-2-((N-(4-((4-guanidinobenzoyl)oxy)benzyl)sulfamoyl)amino)succinic acid]	
	≥ 50		≥ 50	N=C(N)Nc1ccc(C(=O)Oc2cccc(CNS(=O)(=O)N[C@@H](CC(=O)O)C(=O)O)c2)cc1 [Reference Example 73-(b), (S)-2-((N-(3-((4-guanidinobenzoyl)oxy)benzyl)sulfamoyl)amino)succinic acid trifluoroacetate]	
	≥ 50		≥ 50	N=C(N)Nc1ccc(C(=O)Oc2cccc(C(=O)N[C@@H](CC(=O)O)C(=O)O)c2)cc1 [Reference Example 87-(d), (S)-2-(3-((4-guanidinobenzoyl)oxy)benzamide)succinic acid]	
